Where two headings read alike, the source gives them in different places. Starred links: 1 amine or outer side, 2 acyl side, 3 side chain; linkers in the order of their positions; H or OH if unused. Non-standard residues stand in square brackets, D forms with d. Residues, ends and D or L forms follow the SMILES beside them. Groups on a side chain read outwards from the residue. *: point of attachment. Camptothecin(7-Et) = CCc1c2c(nc3ccccc13)-c1cc3c(c(=O)n1C2)COC(=O)[C@@]3(CC)O*; EuK = O=C(O)CC[C@H](NC(=O)N[C@@H](CCCCN*)C(=O)O)C(=O)O; Deacetylacetazolamide = NS(=O)(=O)c1nnc(N*)s1; Suc = O=C(CCC(=O)[*:2])[*:1]; PEG3 = NCCOCCOCCOCCC(=O)O; CO = O=C([*:1])[*:2]
Tests used:
Caco-2 cells = assay: Caco-2 flux assay for cellular permeability; settings: for Caco-2 Flux Papp A-B [nm/s]: Caco-2 cells, apical to basal, 2 hours incubation; for Caco-2 Flux Efflux ratio: ratio Papp (B-A) to Papp (A-B), actively transported when >2 or <0.5, 0.5-2 not actively transported
Experimental: (§1) Caco-2: The cell permeability of a substance can be investigated by means of in vitro testing in a flux assay using Caco-2 cells [M. D. Troutman and D. R. Thakker, Pharm. Res. 20 (8), 1210-1224 (2003)]. For this purpose, the cells were cultured for 15-16 days on 24-well filter plates. For the determination of permeation, the respective test substance was applied in a HEPES buffer to the cells either apically (A) or basally (B) and incubated for 2 hours. After 0 hours and after 2 hours, samples were taken from the cis and trans compartments. The samples were separated by HPLC (Agilent 1200, Böblingen, Germany) using reverse phase columns. The HPLC system was coupled via a Turbo Ion Spray Interface to a Triple Quadropol mass spectrometer API 4000 (AB SCIEX Deutschland GmbH, Darmstadt, Germany). The permeability was evaluated on the basis of a Papp value, which was calculated using the formula published by Schwab et al. [D. Schwab et al., J. Med. Chem. 46, 1716-1725 (2003)]. A substance was classified as actively transported when the ratio of Papp (B-A) to Papp (A-B) (efflux ratio) was >2 or <0.5. […] In Table 2, reference compounds are provided for comparison.

in vitro = settings: human, Caco-2
Experimental: as §1

786-O = assay: Cytotoxicity in vitro in the presence and absence of elastase (MTT assay); assay type: cell-based; settings: 786-O cells, 72 h incubation
Experimental: (§2) Cultivation of cells was performed according to standard procedures with the media recommended by the provider. The cells, in a total volume of 100 μL, were seeded in a 96-well plate with a white bottom (#3610). After a 24 h incubation period at 37° C. and 5% CO2, the medium was exchanged by adding 90 μL fresh medium. The treatment started by adding the test compound in 10 μL of culture medium to the cells in triplicates. Concentrations ranging from 10^−5 M to 10^−13 M were chosen. Two identically treated sets of samples were prepared. One set was treated with the test compound alone, whereas to the second set the compound and 10 nM elastase (NE) was added followed by a 72 h incubation period at 37° C. and 5% CO2. The proliferation was detected using the MTT assay (ATCC). At the end of the incubation period the MTT reagent was added to all samples for 4h. Lysis of the cells followed by addition of the detergent was done overnight. The formed dye was detected at 570 nm. The proliferation of untreated but otherwise identically handled cells was defined as the 100% value. The dose response curves allowed the determination of the respective IC50 values. […]

HT29 = assay: as above; assay type: cell-based; settings: HT29 cells, 72 h incubation
Experimental: as §2

NCI-H292 = assay: as above; assay type: cell-based; settings: NCI-H292 cells, 72 h incubation
Experimental: as §2

SUM149PT = assay: as above; assay type: cell-based; settings: SUM149PT cells, 72 h incubation
Experimental: as §2

[1] = Pharmacokinetics in rat after intravenous administration; assay type: in vivo; settings: plasma, male rats, intravenous bolus 0.5 mg/kg
Experimental: Male rats (n=3) were given an intravenous 0.5 mg/kg bolus dose of test article dissolved in plasma with 1% DMSO and 2% ethanol. Serial blood samples were collected up to 24 hours post-dose. Plasma was harvested from blood samples and stored frozen until sample analysis. Test article plasma concentrations were analyzed by LC/MS/MS. Pharmacokinetic parameters were calculated using non-compartmental analysis.

[2] = compound alone, read-out: IC50 without neutrophil elastase
[3] = with 10 nM elastase (NE), read-out: IC50 with neutrophil elastase

Molecule | Papp A→B at 2 h (in vitro) [×10⁻⁶ cm/s] | efflux ratio at 2 h (in vitro) | IC50 (786-O; [2]) [nM] | IC50 (786-O; [3]) [nM] | IC50 (HT29; [2]) [nM] | IC50 (HT29; [3]) [nM] | IC50 (NCI-H292; [2]) [nM] | IC50 (NCI-H292; [3]) [nM] | IC50 (SUM149PT; [2]) [nM] | IC50 (SUM149PT; [3]) [nM] | other results
CC[C@@]1(O)C(=O)OCc2c1cc1n(c2=O)Cc2c-1nc1cc(F)c(C)c3c1c2[C@@H](NC(=O)CO)CC3 [Ref 2, DXd, reference compound] |  |  |  |  |  |  |  |  |  |  | Caco-2 Flux Papp A-B [nm/s] (Caco-2 cells): AA (AA = 1-9 nm/s); Caco-2 Flux Efflux ratio (Caco-2 cells): A (A = actively transported)
COC(=O)[C@@H](N)CCN(C(=O)CO)[C@@H](c1cc(-c2cc(F)ccc2F)cn1Cc1ccccc1)C(C)(C)C | 1 to 9.9 | > 2 |  |  |  |  |  |  |  |  | 
CCc1c2c(nc3ccccc13)-c1cc3c(c(=O)n1C2)COC(=O)[C@]3(O)CC | 10 to 99.9 | 0.5 to 2 |  |  |  |  |  |  |  |  | 
CC(C)(C)[C@H](c1cc(-c2cc(F)ccc2F)cn1Cc1ccccc1)N(CCC(N)C(F)F)C(=O)CO (stereo partly drawn) | 10 to 99.9 | 0.5 to 2 |  |  |  |  |  |  |  |  | 
CC[C@@]1(OC(=O)[C@@H](NC(=O)[C@@H]2CCCN2C(=O)[C@H](CC(=O)O)NC(=O)CCOCCOCCOCCNC(=O)NCCCC[C@H](NC(=O)N[C@@H](CCC(=O)O)C(=O)O)C(=O)O)C(C)C)C(=O)OCc2c1cc1n(c2=O)Cc2c-1nc1cc(F)c(C)c3c1c2[C@@H](N)CC3 [Compound 11, tetrasodium (1S,9S)-1-amino-9-ethyl-5-fluoro-4-methyl-10,13-dioxo-2,3,9,10,13,15-hexahydro-1H,12H-benzo[de]pyrano[3′,4′:6,7]indolizino[1,2-b]quinolin-9-yl 1-[(2S,23S,27S)-23,27,29-tricarboxylato-2-(carboxylatomethyl)-4,17,25-trioxo-7,10,13-trioxa-3,16,18,24,26-pentaazanonacosanan-1-oyl]-L-prolyl-L-valinate] |  |  | 100 to 999 | 1 to 9.9 | > 1000 | 10 to 99 | 100 to 999 | 1 to 9.9 | 100 to 999 | 1 to 9.9 | 
CCCNC(=O)Nc1cccc(S(=O)(=O)Nc2cccc([C@@H](CC(=O)O)NC(=O)Nc3ccc(NC(=O)NCCOCCOCCOCCC(=O)N[C@@H](CC(=O)O)C(=O)N4CCC[C@H]4C(=O)N[C@H](C(=O)NCCC(C)(C)C(=O)OCCCNC(=O)[C@H](Cc4ccccc4)NC(=O)[C@H](C)[C@@H](OC)[C@@H]4CCCN4C(=O)C[C@@H](OC)[C@H]([C@@H](C)CC)N(C)C(=O)[C@@H](NC(=O)[C@H](C(C)C)N(C)C)C(C)C)C(C)C)cc3)c2)c1 [Compound 31] |  |  | 100 to 999 | 10 to 99 | 10 to 99 | 0.1 to 1 | 10 to 99 | 0.1 to 1 | 10 to 99 | 0.1 to 1 | 
CCc1c2c(nc3ccccc13)-c1cc3c(c(=O)n1C2)COC(=O)[C@@]3(CC)OC(=O)[C@@H](NC(=O)[C@@H]1CCCN1C(=O)[C@H](CC(=O)O)NC(=O)CCOCCOCCOCCNC(=O)[C@H](CCCCNC(=O)CCOCCOCCOCCNC(=O)NCCCC[C@H](NC(=O)N[C@@H](CCC(=O)O)C(=O)O)C(=O)O)NC(=O)CCOCCOCCOCCNC(=O)NCCCC[C@H](NC(=O)N[C@@H](CCC(=O)O)C(=O)O)C(=O)O)C(C)C [Compound 7, heptasodium (4S)-4,11-diethyl-3,14-dioxo-3,4,12,14-tetrahydro-1H-pyrano[3′,4′:6,7]indolizino[1,2-b]quinolin-4-yl 1-[(2S)-15-{[N2,N6-bis(3S,7S)(1,3,7-tricarboxylato-5,13,26-trioxo-17,20,23-trioxa-4,6,12,14-tetraazahexacosan-26-yl)-L-lysyl]amino}-2-(carboxylatomethyl)-4-oxo-7,10,13-trioxa-3-azapentadecanan-1-oyl]-L-prolyl-L-valinate] ({EuK-CO-PEG3}-K([PEG3-CO-EuK])[PEG3]DPV-{Camptothecin(7-Et)}) |  |  | 100 to 999 | 1 to 9.9 | > 1000 | 10 to 99 | 100 to 999 | 1 to 9.9 | 100 to 999 | 1 to 9.9 | 
CCc1c2c(nc3ccccc13)-c1cc3c(c(=O)n1C2)COC(=O)[C@@]3(CC)OC(=O)[C@@H](NC(=O)[C@@H]1CCCN1C(=O)[C@H](CC(=O)O)NC(=O)CCOCCOCCOCCNC(=O)[C@H](CCCCNC(=O)CCOCCOCCOCCNC(=O)CCC(=O)Nc1nnc(S(N)(=O)=O)s1)NC(=O)CCOCCOCCOCCNC(=O)CCC(=O)Nc1nnc(S(N)(=O)=O)s1)C(C)C [Compound 8, sodium (4S)-4,11-diethyl-3,14-dioxo-3,4,12,14-tetrahydro-1H-pyrano[3′,4′:6,7]indolizino[1,2-b]quinolin-4-yl 1-[(2S)-15-[(N2,N6-bis{14,17-dioxo-17-[(5-sulfamoyl-1,3,4-thiadiazol-2-yl)amino]-4,7,10-trioxa-13-azaheptadecanan-1-oyl}-L-lysyl)amino]-2-(carboxylatomethyl)-4-oxo-7,10,13-trioxa-3-azapentadecanan-1-oyl]-L-prolyl-L-valinate] ({Deacetylacetazolamide-Suc-PEG3}-K([PEG3-Suc-Deacetylacetazolamide])[PEG3]DPV-{Camptothecin(7-Et)}) |  |  | > 1000 | 10 to 99 | > 1000 | 10 to 99 | > 1000 | 10 to 99 | > 1000 | 10 to 99 | 
exatecan mesylate [Ref 1, reference compound] |  |  |  |  |  |  |  |  |  |  | Caco-2 Flux Papp A-B [nm/s] (Caco-2 cells): CC (CC = 100-999 nm/s); Caco-2 Flux Efflux ratio (Caco-2 cells): B (B = not actively transported)
CC[C@@]1(O)C(=O)OCc2c1cc1n(c2=O)Cc2cc3cc4c(cc3nc2-1)OCO4 [Ref 3, 10,11-methylenedioxy-camptothecin, reference compound] |  |  |  |  |  |  |  |  |  |  | Caco-2 Flux Papp A-B [nm/s] (Caco-2 cells): CC (CC = 100-999 nm/s); Caco-2 Flux Efflux ratio (Caco-2 cells): B (B = not actively transported)
CCCNC(=O)Nc1cccc(S(=O)(=O)Nc2cccc([C@@H](CC(=O)O)NC(=O)Nc3ccc(NC(=O)NCCOCCOCCOCCC(=O)NCCCC[C@H](NC(=O)CCOCCOCCOCCNC(=O)Nc4ccc(NC(=O)N[C@H](CC(=O)O)c5cccc(NS(=O)(=O)c6cccc(NC(=O)NCCC)c6)c5)cc4)C(=O)NCCOCCOCCOCCC(=O)N[C@@H](CC(=O)O)C(=O)N4CCC[C@H]4C(=O)N[C@H](C(=O)O[C@@H](c4ccccc4)[C@@H](C)NC(=O)[C@H](C)[C@@H](OC)[C@@H]4CCCN4C(=O)C[C@@H](OC)[C@H]([C@@H](C)CC)N(C)C(=O)[C@@H](NC(=O)[C@@H](NC)C(C)C)C(C)C)C(C)C)cc3)c2)c1 [Compound 14] |  |  | 100 to 999 | 1 to 9.9 | 100 to 999 | 0.1 to 1 | 10 to 99 | 0.1 to 1 | 10 to 99 | 0.1 to 1 | AUC [1]: 100 to 500 µg·h/mL; half-life [1]: 10 to 40 h; clearance ([1]; read-out: CL plasma): 0.02 to 0.5 mL/min/kg; Vd ([1]; read-out: VSS): 0.1 to 0.3 L/kg
N2-(14-{4-[({(1R)-2-carboxy-1-[3-({3-[(propylcarbamoyl)amino]benzene-1-sulfonyl}amino)phenyl]ethyl}carbamoyl)amino]anilino}-14-oxo-4,7,10-trioxa-13-azatetradecanan-1-oyl}-L-asparaginyl-L-prolyl-N-{3-[{(1R)-1-[1-benzyl-4-(2,5-difluorophenyl)-1H-pyrrol-2-yl]-2,2-dimethylpropyl}(hydroxyacetyl)amino]propyl}-L-alaninamide [Compound 15] |  |  | > 1000 | 10 to 99 | 100 to 999 | 1 to 9.9 | 100 to 999 | 10 to 99 | 10 to 99 | 1 to 9.9 | 
CC(C)(C)[C@H](c1cc(-c2cc(F)ccc2F)cn1Cc1ccccc1)N(CCCN)C(=O)CO | 0.1 to 0.9 | > 2 |  |  |  |  |  |  |  |  | 

From patent US20260183405A1, “SMALL MOLECULE-DRUG-CONJUGATES CLEAVABLE IN A TUMOR MICROENVIRONMENT” (priority 2022, published 2026)
